This test addresses T1, CYP153A33 (Marinobacter nauticus, UniProt A1TY82).
T1 construct: gene Maqu_0600; co-expressed with P. putida CamA/CamB and E. coli FadL in E. coli BW25113(DE3) delta-fadD; with Putidaredoxin (Pseudomonas putida); Putidaredoxin reductase CamA (Pseudomonas putida)
T1 sequence (A1TY82 1-470): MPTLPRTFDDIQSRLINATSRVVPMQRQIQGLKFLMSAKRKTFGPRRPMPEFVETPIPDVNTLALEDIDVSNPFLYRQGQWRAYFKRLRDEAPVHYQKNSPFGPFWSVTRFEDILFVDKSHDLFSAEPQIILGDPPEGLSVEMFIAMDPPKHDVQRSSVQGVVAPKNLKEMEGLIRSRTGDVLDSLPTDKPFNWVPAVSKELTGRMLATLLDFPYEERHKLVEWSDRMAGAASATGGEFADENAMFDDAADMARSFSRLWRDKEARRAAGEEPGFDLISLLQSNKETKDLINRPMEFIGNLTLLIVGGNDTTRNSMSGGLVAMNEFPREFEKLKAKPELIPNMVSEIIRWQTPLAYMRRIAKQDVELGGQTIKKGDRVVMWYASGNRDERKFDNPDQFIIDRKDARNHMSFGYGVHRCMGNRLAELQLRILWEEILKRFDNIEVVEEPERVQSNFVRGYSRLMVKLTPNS
Description: whole-cell biotransformation, GC analysis of products. In kind it is cell-based. Conditions: 10 mM substrate, pH 7.0, 30 °C, resting E. coli cells OD600 30 with 1% glucose, CamA/CamB and FadL co-expressed; product alpha,omega-dodecanediol.

Molecules are shown by their SMILES.

On to `CCCCCCCCCCCCO` [A, 1-dodecanol], for which the “whole-cell biotransformation, GC analysis of products” value is reported as “CYP153A33-encoding gene was co-expressed with CamAB redox proteins for the whole-cell biotransformation of 1-dodecanol”.

These data come from paper PMC8764613, “Engineering of CYP153A33 With Enhanced Ratio of Hydroxylation to Overoxidation Activity in Whole-Cell Biotransformation of Medium-Chain 1-Alkanols” (Frontiers in Bioengineering and Biotechnology, 2022).
